According to paper PMC9804781, “Identification of a Novel Pseudo‐Natural Product Type IV IDO1 Inhibitor Chemotype” (Angewandte Chemie (International Ed. in English), 2022):

What was measured:
IDO1 = IDO1 (Homo sapiens, UniProt P14902); assay: In-Cell CETSA for IDO1 in SKOV-3 cells; format: cell-based; parameters: endogenous in cells; host or cells: SKOV-3 (IFN-γ induced); conditions: 15 min
Protocol: SKOV-3 cells (1.25 x 10^6 cells/flask) were seeded in two T75 tissue culture flasks and incubated for 24 h prior to addition of 17.6 ng/mL IFN-γ and 10 µM succinylacetone (SA, heme synthesis inhibitor). After 24 h, cells were treated with the compound (C) or DMSO (V, vehicle) for 15 min at 37°C. Cells were detached with trypsin/EDTA and washed thrice in cold PBS after resuspension in cold PBS. C- and V-treated samples were distributed equally into ten tubes each and subjected to heating at different temperatures in the MasterCycler EpGradient S (Eppendorf SE, DE). Afterwards, NP-40 alternative was added to a final concentration of 0.4% (v/v) and cells were lysed by five consecutive freeze/thaw cycles. Soluble fractions were separated from denatured proteins by centrifugation at 100,000 x g and 4°C for 20 min. Supernatants were transferred to new tubes and subjected to immunoblot analysis.

[1] = system: L-Trp uptake in BxPC-3 cells; assay: Trp uptake assay in BxPC-3 cells (HPLC-MS/MS); format: cell-based; conditions: BxPC-3 starved for L-Trp 72 h, ±IFN-γ; 5 mM L-Leu, 1 mM 1-MT, 5 µM compound
Protocol: GraphPad Prism 9.0 (GraphPad Software, Inc, US) to generate dose-response curves and obtain […]
IDO1 promoter reporter gene assay
HEK293T cells (25,000 cells/well) were reverse-transfected with pXPG-IDO1[16] (4 µg/96-well plate, kindly provided by Gina M. Doody, Leeds, UK) and pRL-TK (300 ng/96-well plate, Promega, US) using Lipofectamine™ 2000 (Invitrogen, USA) pri or to incubation for 24 h. Afterwards, cells were treated with 50 ng/mL IFN-γ and the compounds for 48 h. Luminescence generated by the Fluc reporter and the control reporter Rluc was measured using the Dual-Glo ® Luciferase Assay System (Promega, US) on the Spark® Multimode Microplate Reader (Tecan, AT). To determine the IDO1 promoter activity, Fluc signals were divided by Rluc signals and normalized to the values of the DMSO control. Data analysis was performed using a non-linear regression curve fit and […]
BxPC-3 cells (30,000 cells/well) were seeded in 96-well plates in Trp-free RPMI 1640 medium and incubated for 48 h prior addition of 50 ng/mL IFN-γ. Trp starvation was continued for another 24 h. Afterwards, medium was exchanged for Trp-free medium containing the control inhibitors 5 mM L-Leu (inhibitor of system-L amino acid transporters (LAT)), 1 mM 1-methyl-L-tryptophan (inhibitor of tryptophanyl-tRNA synthetase (TrpRS)) and compounds and cells were incubated for 30 min. Subsequently, 50 µM L-Trp was added and samples were incubated for another 30 min.
The supernatant was transferred to a new plate, trichloroacetic acid was added to a final concentration of 7% (v/v) and plates were incubated for 15 min at room temperature. Samples were centrifuged for 10 min at 1800 x g and L-Trp was quantified by HPLC-MS/MS using the LTQ Velos Pro and Dionex HPLC (Thermo Fisher Scientific, US). Data analysis was performed with Xcalibur™ (Thermo Fisher Scientific, US) and repres ented using GraphPad Prism 9.0 (GraphPad […]
RNA purification and RT-qPCR
HeLa cells (250,000 cells/well) were seeded in 6-well plates and incubated for 24 h prior addition of 50 ng/mL IFN-γ and compounds. […]

Chain of IDO1 (P14902 whole entry): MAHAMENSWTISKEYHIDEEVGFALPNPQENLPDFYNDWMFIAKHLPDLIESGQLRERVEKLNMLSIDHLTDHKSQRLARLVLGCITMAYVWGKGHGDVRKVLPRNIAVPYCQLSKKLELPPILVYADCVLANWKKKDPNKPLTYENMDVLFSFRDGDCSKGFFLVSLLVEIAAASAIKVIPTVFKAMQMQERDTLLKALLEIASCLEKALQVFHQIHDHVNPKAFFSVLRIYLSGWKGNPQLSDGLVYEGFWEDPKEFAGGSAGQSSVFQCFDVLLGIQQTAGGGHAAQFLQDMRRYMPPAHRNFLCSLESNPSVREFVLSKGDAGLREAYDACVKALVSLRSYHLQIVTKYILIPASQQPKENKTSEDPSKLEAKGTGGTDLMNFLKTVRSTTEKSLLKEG

CETSA shift in Tm of IDO1 (result in words) (IDO1; IFN-γ 24 h, 50 μM, no succinylacetone): did not lead to a shift | ΔTm at 30 µM (IDO1; SK-OV-3, IFN-γ and 10 μM succinylacetone 24 h, 30 μM, read-out: CETSA ΔTm of apo-IDO1): 7.9 ± 0.6 °C
SMILES: CCOC(=O)C1=CC[C@](C(=O)OC)(c2cc3ccccc3n2C)N(S(=O)(=O)c2ccc(C)cc2)[C@@H]1C(=O)OC(C)(C)C [Compound 3d]
uptake (import) of L-Trp [1]: does not interfere
